In patent US11040981B2, “Pyrrolotriazine compounds and methods of inhibiting TAM kinases” (Syros Pharmaceuticals, Inc., priority 2017, dated 2021):
pIC50: −log10 of the molar value. Structures can show the parent of a compound that is named as a salt.

What was measured:
[1] = biological target: T1, MERTK (Homo sapiens, UniProt Q12866); experiment: TR-FRET kinase activity assay, MERTK; format: biochemical; conditions: for pIC50: TR-FRET activity assay, ATP at Km, 60 minutes, read-out: Mer IC50; for FLT3/Mer ratio (FLT3 IC50/Mer IC50): ratio of Mer to FLT3: FLT3 IC50/Mer IC50
T1 sequence (Q12866 21-999): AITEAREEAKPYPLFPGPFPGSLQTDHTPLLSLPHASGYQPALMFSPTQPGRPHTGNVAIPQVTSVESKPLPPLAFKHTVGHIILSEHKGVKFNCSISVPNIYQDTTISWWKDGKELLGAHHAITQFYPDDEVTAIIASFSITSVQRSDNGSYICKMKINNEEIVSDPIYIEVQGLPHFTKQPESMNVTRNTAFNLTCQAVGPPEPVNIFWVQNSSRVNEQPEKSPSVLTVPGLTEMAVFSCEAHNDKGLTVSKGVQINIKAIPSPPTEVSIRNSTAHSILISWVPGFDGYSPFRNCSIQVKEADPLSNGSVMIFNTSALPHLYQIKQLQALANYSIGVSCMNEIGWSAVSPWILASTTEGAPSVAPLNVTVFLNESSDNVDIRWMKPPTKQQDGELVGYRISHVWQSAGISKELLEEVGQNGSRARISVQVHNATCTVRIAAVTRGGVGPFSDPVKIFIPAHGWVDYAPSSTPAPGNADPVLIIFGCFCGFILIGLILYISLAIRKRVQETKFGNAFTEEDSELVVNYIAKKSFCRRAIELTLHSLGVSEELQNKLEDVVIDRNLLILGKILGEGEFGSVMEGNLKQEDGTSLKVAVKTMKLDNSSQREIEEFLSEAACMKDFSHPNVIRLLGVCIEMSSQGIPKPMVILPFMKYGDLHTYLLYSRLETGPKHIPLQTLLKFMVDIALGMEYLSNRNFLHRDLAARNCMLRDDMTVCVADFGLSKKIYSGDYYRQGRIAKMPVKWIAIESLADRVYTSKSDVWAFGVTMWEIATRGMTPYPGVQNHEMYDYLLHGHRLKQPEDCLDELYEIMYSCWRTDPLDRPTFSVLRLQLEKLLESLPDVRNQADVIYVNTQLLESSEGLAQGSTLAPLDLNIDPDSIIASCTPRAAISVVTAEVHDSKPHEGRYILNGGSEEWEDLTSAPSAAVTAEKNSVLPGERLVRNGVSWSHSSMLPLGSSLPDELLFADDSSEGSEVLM
Procedure, shortened: (§1)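 IC50 reflects the drop in TR-FRET between Eu anti-phosphotyrosine antibody and labelled peptide after a 60-minute room-temperature reaction. Buffer was 50 mM HEPES pH 7.5 with 10 mM MgCl2, 1 mM EGTA, 0.01% Brij 35 and 1 mM DTT, with ATP at Km per enzyme and EDTA quench.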

[2] = biological target: T2, AXL (Homo sapiens, UniProt P30530); experiment: TR-FRET kinase activity assay, AXL; format: biochemical; conditions: ATP at Km, 60 minutes
T2 sequence (P30530 26-894): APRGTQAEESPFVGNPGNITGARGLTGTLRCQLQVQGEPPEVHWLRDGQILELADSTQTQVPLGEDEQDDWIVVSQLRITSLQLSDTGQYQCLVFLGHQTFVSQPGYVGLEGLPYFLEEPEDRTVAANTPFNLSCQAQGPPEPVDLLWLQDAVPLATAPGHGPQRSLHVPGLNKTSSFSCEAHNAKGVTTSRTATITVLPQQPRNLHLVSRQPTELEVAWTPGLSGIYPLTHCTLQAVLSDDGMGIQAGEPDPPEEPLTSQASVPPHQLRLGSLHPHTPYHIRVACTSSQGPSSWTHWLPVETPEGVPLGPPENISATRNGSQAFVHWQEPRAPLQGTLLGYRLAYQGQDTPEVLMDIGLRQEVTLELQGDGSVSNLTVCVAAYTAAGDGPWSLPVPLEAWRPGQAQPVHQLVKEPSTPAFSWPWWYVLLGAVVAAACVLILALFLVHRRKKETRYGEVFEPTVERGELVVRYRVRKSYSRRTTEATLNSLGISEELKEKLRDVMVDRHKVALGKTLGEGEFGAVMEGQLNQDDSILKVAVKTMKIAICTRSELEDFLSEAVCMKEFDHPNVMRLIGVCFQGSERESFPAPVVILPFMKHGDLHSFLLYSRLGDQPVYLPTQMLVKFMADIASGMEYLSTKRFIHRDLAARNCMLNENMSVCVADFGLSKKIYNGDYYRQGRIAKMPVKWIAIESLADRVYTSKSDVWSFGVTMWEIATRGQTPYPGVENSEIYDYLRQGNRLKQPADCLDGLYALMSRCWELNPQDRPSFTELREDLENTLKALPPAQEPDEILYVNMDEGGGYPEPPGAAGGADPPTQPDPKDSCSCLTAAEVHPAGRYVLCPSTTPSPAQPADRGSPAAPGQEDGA
Procedure, shortened: as §1

Row | pIC50 [1] | FLT3/Mer ratio (FLT3 IC50/Mer IC50) [1] | pIC50 [2] | SMILES
1 | ≥ 7.00 | +++ (“+++” represents a ratio of >100) | ≥ 7.00 | COC[C@H](C)Nc1ncc2c(-c3ccnc(C)c3)cc(C3CCC4(CC3)NC(=O)NC4=O)n2n1 (mixture of isomers) [Compound 325, (S)-8-(2-((1-methoxypropan-2-yl)amino)-5-(2-methylpyridin-4-yl)pyrrolo[2,1-f][1,2,4]triazin-7-yl)-1,3-diazaspiro[4.5]decane-2,4-dione]
2 | ≥ 7.00 | +++ (“+++” represents a ratio of >100) | ≥ 7.00 | CCCCC[C@H](C)Nc1ncc2c(N3CCNCC3)cc([C@H]3CC[C@H](O)CC3)n2n1 [Compound 114]
3 | ≥ 7.00 | +++ (“+++” represents a ratio of >100) | ≥ 7.00 | CCCCC[C@H](C)Nc1ncc2c(C3CCNCC3)cc([C@H]3CC[C@H](O)CC3)n2n1 [Compound 116, (1S,4r)-4-(2-((S)-heptan-2-ylamino)-5-(piperidin-4-yl)pyrrolo[2,1-f][1,2,4]triazin-7-yl)cyclohexanol hydrochloride]
4 | ≥ 7.00 | +++ (“+++” represents a ratio of >100) | 6.00 to 7.00 | CCCCC[C@H](C)Nc1ncc2c(N3CCC(C(=O)O)CC3)cc([C@H]3CC[C@H](O)CC3)n2n1 [Compound 117]
5 | ≥ 7.00 | +++ (“+++” represents a ratio of >100) | 6.00 to 7.00 | CNS(=O)(=O)c1cncc(-c2cc([C@H]3CC[C@H](O)CC3)n3nc(N[C@@H](C)COC)ncc23)c1 [Compound 272]
6 | ≥ 7.00 | +++ (“+++” represents a ratio of >100) | ≥ 7.00 | CC(CC(F)(F)F)Nc1ncc2c(-c3cncc(S(C)(=O)=O)c3)cc(C3CCC(O)CC3)n2n1 (stereo not drawn) [Compound 273]
7 | ≥ 7.00 | +++ (“+++” represents a ratio of >100) | ≥ 7.00 | COCCn1cc(-c2cc([C@H]3CC[C@H](O)CC3)n3nc(N[C@@H](C)COC(F)F)ncc23)cn1 [Compound 274]
8 | ≥ 7.00 | +++ (“+++” represents a ratio of >100) | ≥ 7.00 | CNS(=O)(=O)c1cncc(-c2cc([C@H]3CC[C@H](O)CC3)n3nc(N[C@@H](C)COC(F)F)ncc23)c1 [Compound 275]
9 | ≥ 7.00 | +++ (“+++” represents a ratio of >100) | ≥ 7.00 | C[C@@H](CC(F)(F)F)Nc1ncc2c(-c3cn[nH]c3)cc([C@H]3CC[C@H](O)CC3)n2n1 [Compound 276]
10 | ≥ 7.00 | +++ (“+++” represents a ratio of >100) | ≥ 7.00 | COC[C@H](C)Nc1ncc2c(-c3cnn(Cc4nnc(C)o4)c3)cc([C@H]3CC[C@H](O)CC3)n2n1 [Compound 277]
11 | ≥ 7.00 | +++ (“+++” represents a ratio of >100) | ≥ 7.00 | CNS(=O)(=O)c1cncc(-c2cc([C@H]3CC[C@H](O)CC3)n3nc(N[C@@H](C)CC(F)(F)F)ncc23)c1 [Compound 278]
12 | ≥ 7.00 | +++ (“+++” represents a ratio of >100) | ≥ 7.00 | COC[C@H](C)Nc1ncc2c(-c3ccc(S(C)(=O)=O)nc3)cc([C@H]3CC[C@H](O)CC3)n2n1 [Compound 279]
13 | ≥ 7.00 | +++ (“+++” represents a ratio of >100) | ≥ 7.00 | COC[C@H](C)Nc1ncc2c(-c3cnn(CCS(C)(=O)=O)c3)cc([C@H]3CC[C@H](O)CC3)n2n1 [Compound 280]
14 | ≥ 7.00 | +++ (“+++” represents a ratio of >100) | ≥ 7.00 | COC[C@H](C)Nc1ncc2c(-c3cnn(Cc4ccnnc4)c3)cc([C@H]3CC[C@H](O)CC3)n2n1 [Compound 281]
15 | ≥ 7.00 | +++ (“+++” represents a ratio of >100) | ≥ 7.00 | COC[C@H](C)Nc1ncc2c(-c3cnn(C(C)(C)C(=O)N4CCOCC4)c3)cc([C@H]3CC[C@H](O)CC3)n2n1 [Compound 282]
16 | ≥ 7.00 | +++ (“+++” represents a ratio of >100) | ≥ 7.00 | COC[C@H](C)Nc1ncc2c(-c3cnn(C(C)(C)C(=O)N4CCC4)c3)cc([C@H]3CC[C@H](O)CC3)n2n1 [Compound 283]
17 | ≥ 7.00 | +++ (“+++” represents a ratio of >100) | 6.00 to 7.00 | COC[C@H](C)Nc1ncc2c(-c3cnn(C(C)(C)C(=O)O)c3)cc([C@H]3CC[C@H](O)CC3)n2n1 [Compound 284]
18 | ≥ 7.00 | +++ (“+++” represents a ratio of >100) | ≥ 7.00 | COC[C@H](C)Nc1ncc2c(-c3cnn(Cc4noc(C)n4)c3)cc([C@H]3CC[C@H](O)CC3)n2n1 [Compound 285]
19 | ≥ 7.00 | +++ (“+++” represents a ratio of >100) | ≥ 7.00 | COC[C@H](C)Nc1ncc2c(-c3cnn(C4CN(C(C)=O)C4)c3)cc([C@H]3CC[C@H](O)CC3)n2n1 [Compound 286]
20 | ≥ 7.00 | +++ (“+++” represents a ratio of >100) | ≥ 7.00 | COC[C@H](C)Nc1ncc2c(-c3cnn(C4CC(S(C)(=O)=O)C4)c3)cc([C@H]3CC[C@H](O)CC3)n2n1 (stereo partly drawn) [Compound 287]

Row | SMILES | pIC50 [1] | FLT3/Mer ratio (FLT3 IC50/Mer IC50) [1] | pIC50 [2]
21 | CCCCC[C@H](C)Nc1ncc2c(C3=CC[C@@H](C(=O)N4CCOCC4)CC3)cc([C@H]3CC[C@H](O)CC3)n2n1 [Compound 113] | ≥ 7.00 | ++ (“++” represents a ratio of between 10 and 100) | ≥ 7.00
22 | CCCCC[C@H](C)Nc1ncc2c(N3CCC(N(C)C)CC3)cc(C3CCC(O)CC3)n2n1.Cl (stereo partly drawn) [Compound 115, 4-[5-[4-(dimethylamino)-1-piperidyl]-2-[[(1S)-1-methylhexyl]amino]pyrrolo[2,1-f][1,2,4]triazin-7-yl]cyclohexanol hydrochloride] | ≥ 7.00 | ++ (“++” represents a ratio of between 10 and 100) | 6.00 to 7.00
23 | CC[C@H](C)Nc1ncc2c(-c3ccc(CN4CCN(C)CC4)cc3)cc([C@H]3CC[C@H](O)CC3)n2n1 [Compound 118] | ≥ 7.00 | ++ (“++” represents a ratio of between 10 and 100) | ≥ 7.00
24 | C[C@@H](CC(F)(F)F)Nc1ncc2c(-c3cnn(CCS(C)(=O)=O)c3)cc([C@H]3CC[C@H](O)CC3)n2n1 [Compound 288] | ≥ 7.00 | ++ (“++” represents a ratio of between 10 and 100) | ≥ 7.00
25 | C[C@@H](CC(F)(F)F)Nc1ncc2c(-c3cnn([C@@H]4CCOC4)c3)cc([C@H]3CC[C@H](O)CC3)n2n1 [Compound 289] | ≥ 7.00 | + (“+” represents a ratio of >2.0 and <10) | ≥ 7.00
